# According to US4138403A, “Azabicycloheptanes” (Beecham Group Limited, priority 1975, dated 1979):
# Columns and labels:
# Type in all cases: biochemical
# [1] = test system: β-lactamase Citrobac.; test: β-lactamase inhibition, Citrobac. enzyme
# Procedure: (§1) The β-lactamase inhibiting activity of certain compounds of the formula (e36) was determined by the method described in Belgian Patent No. 827,926 and the results are shown in Table 1.
# [2] = target: β-lactamase Ps. aerug. (Pseudomonas aeruginosa, UniProt P24735); test: β-lactamase inhibition, Ps. aerug. enzyme; details: read-out: % Inhibition of - lactamases at 40 μg/ml, Ps. aerug.
# Procedure: as §1
# [3] = test system: β-lactamase Proteus C889; test: β-lactamase inhibition, Proteus C889 enzyme
# Procedure: as §1
# [4] = target: β-lactamase E.Coli JT4 (Escherichia coli, UniProt P62593); test: β-lactamase inhibition, E.Coli JT4 enzyme; details: read-out: % Inhibition of - lactamases at 40 μg/ml, E.Coli JT4
# Procedure: as §1
# [5] = test system: β-lactamase Kleb. ε 70; test: β-lactamase inhibition, Kleb. ε 70 enzyme
# Procedure: as §1
# [6] = target: β-lactamase Ps. dalgl. (Pseudomonas aeruginosa, UniProt P16897); test: β-lactamase inhibition, Ps. dalgl. enzyme; details: read-out: % Inhibition of - lactamases at 40 μg/ml, Ps. dalgl.
# Procedure: as §1
# [7] = target: β-lactamase Staph. Russell (Staphylococcus aureus, UniProt P00807); test: β-lactamase inhibition, Staph. Russell enzyme; details: read-out: % Inhibition of - lactamases at 40 μg/ml, Staph. Russell
# Procedure: as §1
# β-lactamase Staph. Russell, sequence (P00807 25-281): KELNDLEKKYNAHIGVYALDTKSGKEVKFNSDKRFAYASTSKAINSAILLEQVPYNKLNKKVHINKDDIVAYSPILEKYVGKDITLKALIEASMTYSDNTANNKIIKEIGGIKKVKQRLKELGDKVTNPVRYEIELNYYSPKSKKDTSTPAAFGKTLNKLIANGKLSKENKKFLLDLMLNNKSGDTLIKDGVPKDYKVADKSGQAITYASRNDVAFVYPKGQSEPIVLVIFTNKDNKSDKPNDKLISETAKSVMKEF
# β-lactamase E.Coli JT4, sequence (P62593 24-286 limits assumed): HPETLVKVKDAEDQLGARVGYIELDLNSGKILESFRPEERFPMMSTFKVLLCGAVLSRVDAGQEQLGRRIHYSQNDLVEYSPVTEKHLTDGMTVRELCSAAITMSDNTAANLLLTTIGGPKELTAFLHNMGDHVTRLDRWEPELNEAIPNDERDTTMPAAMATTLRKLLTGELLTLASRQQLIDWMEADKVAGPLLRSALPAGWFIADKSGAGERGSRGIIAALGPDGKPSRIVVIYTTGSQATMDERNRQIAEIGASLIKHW
# β-lactamase Ps. dalgl., sequence (P16897 18-288): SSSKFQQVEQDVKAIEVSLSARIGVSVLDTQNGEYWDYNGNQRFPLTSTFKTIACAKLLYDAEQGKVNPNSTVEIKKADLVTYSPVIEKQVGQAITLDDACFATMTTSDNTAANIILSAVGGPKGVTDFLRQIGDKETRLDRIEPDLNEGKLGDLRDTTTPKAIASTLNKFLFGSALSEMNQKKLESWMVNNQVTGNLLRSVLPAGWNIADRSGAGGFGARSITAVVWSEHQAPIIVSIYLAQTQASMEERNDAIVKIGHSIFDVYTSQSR
# β-lactamase Ps. aerug., sequence (P24735 27-397): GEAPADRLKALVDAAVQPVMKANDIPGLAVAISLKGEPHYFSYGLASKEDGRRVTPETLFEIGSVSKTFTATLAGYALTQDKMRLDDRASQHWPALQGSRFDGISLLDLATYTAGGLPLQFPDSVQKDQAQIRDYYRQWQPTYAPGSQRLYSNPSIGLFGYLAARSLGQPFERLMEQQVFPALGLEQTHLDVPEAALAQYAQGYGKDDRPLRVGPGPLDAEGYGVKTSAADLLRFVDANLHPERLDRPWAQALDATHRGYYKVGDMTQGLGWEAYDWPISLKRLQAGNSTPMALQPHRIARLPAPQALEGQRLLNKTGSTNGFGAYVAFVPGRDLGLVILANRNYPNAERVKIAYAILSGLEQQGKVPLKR
SMILES,"% Inhibition of - lactamases at 40 μg/ml, Citrobac. [1]",inhibition at 40 µg/mL [2],"% Inhibition of - lactamases at 40 μg/ml, Proteus C889 [3]",inhibition at 40 µg/mL [4],"% Inhibition of - lactamases at 40 μg/ml, Kleb. ε 70 [5]",inhibition at 40 µg/mL [6],inhibition at 40 µg/mL [7],"I50 values (in parentheses), Citrobac. ([1]; value printed in parentheses)"
"COC(=O)[C@H]1[C@H](CCO)O[C@@H]2CC(=O)N21 (relative stereo) [CH2 CH2 OH, Me, (2RS,3SR,5RS)]",2%,10%,29%,15%,14%,0%,10%,–
"O=C(O)[C@H]1CO[C@@H]2CC(=O)N12 (relative stereo) [H, Na, (2RS,5RS)]",0%,14%,–,28%,78%,0%,33%,–
COC(=O)[C@H]1[C@H](CCOS(=O)(=O)c2ccc(C)cc2)O[C@@H]2CC(=O)N21 (relative stereo),5%,11%,–,33%,0%,11%,4%,–
"COC(=O)[C@H]1[C@H](CBr)O[C@@H]2CC(=O)N21 (relative stereo) [CH2 Br, CO2 CH3, (2RS,3RS,5RS)]",–,8%,42%,42%,4%,17%,12%,10.3 µg/mL
"O=C(OCc1ccccc1)[C@@H]1O[C@@H]2CC(=O)N2[C@H]1C(=O)OCc1ccccc1 [CO2 CH2 Ph, CO2 CH2 Ph, (2R,3R,5R), Dibenzyl (2R, 3R, 5R)-7-oxo-4-oxa-1-azabicyclo-[3.2.0]heptan-2,3-Dicarboxylate]",2%,9%,23%,65%,56%,26%,0%,–
